Consider two compounds from US5688773A, “Method of selectively destroying neoplastic cells” (priority 1994, dated 1997).

One test concerns C6 cells. As to the kind of experiment: Cell proliferation assay. The class given is cell-based, rat. As to conditions: 0.5 mM, four days. On the procedure:
Cell proliferation assays: For cell proliferation assays, cells (2×10^5 per dish, unless otherwise noted) were plated onto 10 cm dishes. […] Incubations were continued for four days and cell numbers were assayed using a Coulter counter (Coulter Electronics Inc.), after harvesting in trypsinEDTA.

For test [1], the system named is C6 cells co-cultured with irradiated C6-P450 cells. Description: Co-culture assay with irradiated cells. The test is classed as cell-based. The note with it: Rattus norvegicus, light or radiation study, 96 h; 10% irradiated C6-P450 cells; 0.5 mM CPA, four days; read-out: decrease in the proliferation of C6 cells. How it is done:
Co-culture assay: Co-cultures of C6-P450 and C6 cells were incubated in triplicate at different ratios (where 0, 10, 50, 90, and 100% of the cells were C6-P450 cells) to achieve a total number of 2×10^6 cells/10 cm dish. After 24 hours, 0.5 mM CPA was added and four days later, cells were counted as previously described. To compare the killing achieved by cell contact with that obtained by exposure to conditioned medium, the supernatant from each co-culture was harvested, filtered through 0.45 μm membrane filters, mixed in a 1:1 ratio with 5 mL of fresh medium and added to overnight cultures of C6 cells (2×10^6 cells/10 cm dish in triplicate). Four days later, C6 cells were washed, harvested and counted. To determine the specificity of the cell-mediated killing effect from the co-culture assays, C6 cells were incubated overnight with C6 cells that expressed the neomycin phosphotransferase gene (C6-Neo), with irradiated C6 cells, with irradiated C6-Neo, and with irradiated C6-P450 cells. γ-irradiation was performed by exposing cells to a total of 6000 rads emitted by a ^51 chromium source.

Test [2] relates to C6 cells exposed to CM from C6. Description: C6 colony formation after conditioned medium from drug-exposed cells. The class given is cell-based, rat. As to conditions: for Colony numbers: colonies six days later.
The test system of another test is 9L tumors. Description: Tumor growth delay study. The test is classed as in vivo, Fischer 344 rats. As to conditions: 100 mg/kg single intraperitoneal injection 7 days after implantation; tumors inhibited/total, 7-8 weeks. How it is done: (§1) Tumor Growth Delay Studies: 9L cells were grown subcutaneously (s.c.) as solid tumors in female Fischer 344 rats. Adult female Fischer 344 rats (120-150g) were inoculated at 2×10^6 cells/s.c. site; cytochrome P450 2B1-negative cells (parental 9L or 9L-Z cells) were injected in one thigh and cytochrome P450 2B1-positive cells (9L-ZP or L450-2 cells) in the other thigh. This strategy was employed to control any potential effects that subcutaneous growth of the 9L tumor might have on liver cytochrome P450-dependent cyclophosphamide activation activity. Drug treatment was initiated seven days after tumor implantation. Rats were randomized and divided into two groups. One group was treated with cyclophosphamide at 100 mg/kg body weight given as a single intraperitoneal injection. Another group was injected with saline as control. Tumor size was monitored by caliper measurement at times ranging up to 7-8 weeks, at which point the animals were sacrificed.

Another test concerns L450-2 tumors. Description: Tumor growth delay study. The class given is in vivo, Fischer 344 rats. As to conditions: 100 mg/kg single intraperitoneal injection 7 days after implantation; tumors inhibited/total, 7-8 weeks. How it is done: as §1
The test system of the next test is 9L-Z tumors. Description: Tumor growth delay study. The class given is in vivo, Fischer 344 rats. As to conditions: 100 mg/kg single intraperitoneal injection 7 days after implantation; tumors inhibited/total, 7-8 weeks. On the procedure:
as §1

The test system of the next test is 9L-ZP tumors. As to the kind of experiment: Tumor growth delay study. The class given is in vivo, Fischer 344 rats. As to conditions: 100 mg/kg single intraperitoneal injection 7 days after implantation; tumors inhibited/total, 7-8 weeks. On the procedure:
as §1

In a further test the test system is C6BBAG cells. As to the kind of experiment: Ganciclovir sensitivity, cell proliferation assay. The test is classed as cell-based, rat. The note with it: even at 1000 nM ganciclovir. How it is done: (§2) Ganciclovir Sensitivity Assays in Culture: To measure the sensitivity of isolated cells, cells were plated in 24-well plates at a density of 10^4 cells per well. The next day, medium was replaced with medium containing ganciclovir (Cytovene, Burroughs Wellcome) at varying concentrations (0-1 μM) in quadruplicate. Four days later, cells were harvested using trypsin and counted using a cell counter (Coulter Electronics Ltd., Luton, United Kingdom). Cell growth is expressed as the percentage of cells compared to the number of cells without treatment (100%).

The subject of another test is C6BWT cells. Description: Ganciclovir sensitivity, cell proliferation assay. The note with it: even at 1000 nM ganciclovir. The class given is cell-based, rat. On the procedure: as §2
Test [3] relates to C6BU1 (HSV-TK negative) cells. As to the kind of experiment: Ganciclovir sensitivity, cell proliferation assay. The class given is cell-based, rat. As to conditions: even at 1000 nM ganciclovir. How it is done:
as §2

The test system of the next test is C6BAGWT cells. As to the kind of experiment: Ganciclovir sensitivity, cell proliferation assay. As to conditions: even at 1000 nM ganciclovir. The class given is cell-based, rat. How it is done: as §2
The subject of another test is C6BAG cells. As to the kind of experiment: Ganciclovir sensitivity, cell proliferation assay. The test is classed as cell-based, rat. The note with it: even at 1000 nM ganciclovir. On the procedure:
as §2

The test system of a further test is C6BAG and C6VIKWT cells. Description: Ganciclovir treatment of combined subcutaneous tumors. The class given is in vivo, nude mice. How it is done:
Sequential injections of 10^5 C6BAG cells followed immediately by 10^6 C6BU1 cells, C6VIK cells, or C6VIKWT cells at the same injection site, were carried out as above using 20 animals for each combination. […] Tumor volume was assessed as the percentage increase over the volume at the beginning of treatment through 17 days.

For the next test, the system named is C6VIKWT cells. As to conditions: colony survival; drug from day 7 for 9-12 days. How it is done: To measure the ganciclovir sensitivity of colony formation, cells were plated in duplicate at a density of 500 cells per 25 cm^2 culture flask. Seven days later, ganciclovir was added at various concentrations (0, 0.1, 0.5, 1, 10, 50, 100, 300 μM) in quadruplicate and incubation was for 9-12 days, with medium changes every 3-5 days. Cells were then fixed with 100% methanol, and stained with Giemsa (Freshney, R. I., "Culture of Animal Cells," in: A Manual of Basic Techniques, 2d ed., New York, Alan R. Liss, Inc., pp. 170-171 (1987)), and colonies ≥2 mm in diameter were counted.

In test [4] the test system is C6 glioma cells and other cells infected with this retrovirus. The note with it: cell culture; cited from earlier work.

SMILES strings stand for the structures.

On to `O=P1(N(CCCl)CCCl)NCCCO1` (stereo not drawn) [cyclophosphamide], for which, in the test on C6 cells, the “Effect on cell proliferation” value was “had no effect”. In addition, the “Cell proliferation assay, number of cells” value in the test with C6 cells (Table V panel A) was 21.10±1.37 ×10^6. In addition, in test [1], the inhibition at 500 µM was determined as 30%. In addition, the Colony numbers in test [2] (CM after 0.5 h of 0.5 mM CPA) is 247 ± 3; in test [2] (CM after 1.5 h of 0.5 mM CPA), 256 ± 7; in [2] (CM after 3 h of 0.5 mM CPA), 257 ± 1; in test [2] (CM after 6 h of 0.5 mM CPA), 260 ± 4; in test [2] (CM after 10 h of 0.5 mM CPA), 245 ± 5; in [2] (CM after 24 h of 0.5 mM CPA), 255 ± 14. The Colony numbers in [2] (CM after 32 h of 0.5 mM CPA) is 240 ± 2; in test [2] (CM after 48 h of 0.5 mM CPA), 245 ± 6; in test [2] (CM after 72 h of 0.5 mM CPA), 260 ± 5; in test [2] (CM after 96 h of 0.5 mM CPA), 260 ± 9. Besides, the “Secretion effect, C6 colony number” value in [2] (Table V panel C, CM from treated C6 cultures) stood at 271±14.2. The “Complete Tumor Growth Inhibition” value is recorded as 0/11 in the test on 9L tumors, 11/11 with L450-2 tumors, 0/9 in the test with 9L-Z tumors and 8/9 in the test on 9L-ZP tumors.
`Nc1nc(O)c2ncn(COC(CO)CO)c2n1` [ganciclovir]: the Inhibition of growth entry (in the test on C6BBAG cells; in the test on C6BWT cells; in test [3]; in the test on C6BAGWT cells; in the test with C6BAG cells) was “No substantial inhibition of growth” in each case. Also, the “Tumor size compared to C6BAG and C6BU1 tumors” value in the test with C6BAG and C6VIKWT cells (14 day course, 25 mg/kg twice a day intraperitoneally) is given as “even greater decrease in the size”. In addition, in the test with C6BAG and C6VIKWT cells (C6VIK-WT and C6BAG inoculated simultaneously, GCV treatment), the Tumor regression result is recorded as “regression of tumors in most nude mice”. The “fold more sensitive than parental line C6VIK at 50% surviving colonies” value in the test on C6VIKWT cells is 300 fold. In addition, the “fold lower ganciclovir concentration killing infected vs uninfected cells” value in test [4] is 100 fold.
